{"source": "paper PMC9413491", "about": "“A Novel and Cross-Species Active Mammalian INDY (NaCT) Inhibitor Ameliorates Hepatic Steatosis in Mice with Diet-Induced Obesity” (Metabolites, 2022)", "key": {"human NaDC3 (SLC13A3)": {"biological_target": "T1, human NaDC3 (SLC13A3) (Homo sapiens, UniProt Q8WWT9)", "T1 construct": "expressed in transfected cells; host or cells: HEK293 (HEK-NaDC3), hygromycin selection", "T1 sequence (Q8WWT9 1-602)": "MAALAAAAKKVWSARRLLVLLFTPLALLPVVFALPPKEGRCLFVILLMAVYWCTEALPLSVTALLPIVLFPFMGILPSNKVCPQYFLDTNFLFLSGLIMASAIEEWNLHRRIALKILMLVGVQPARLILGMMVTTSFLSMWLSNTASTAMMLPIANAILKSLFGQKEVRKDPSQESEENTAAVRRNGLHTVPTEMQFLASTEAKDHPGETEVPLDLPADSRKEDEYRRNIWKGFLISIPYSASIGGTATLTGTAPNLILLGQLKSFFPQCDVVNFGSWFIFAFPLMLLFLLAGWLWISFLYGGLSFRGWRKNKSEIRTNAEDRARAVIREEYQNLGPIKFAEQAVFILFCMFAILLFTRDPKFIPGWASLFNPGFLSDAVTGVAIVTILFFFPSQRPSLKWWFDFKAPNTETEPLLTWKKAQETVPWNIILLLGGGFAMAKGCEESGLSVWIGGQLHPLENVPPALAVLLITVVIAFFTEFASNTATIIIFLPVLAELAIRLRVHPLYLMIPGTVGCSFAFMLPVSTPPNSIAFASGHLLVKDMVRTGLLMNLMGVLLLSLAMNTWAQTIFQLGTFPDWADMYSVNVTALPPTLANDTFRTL", "experiment": "[14C] succinate uptake in HEK293 cells overexpressing human NaDC3", "format": "cell-based", "from_the_text": "We obtained the compound by screening a library containing more than 50,000 highly diverse lead-like compounds from the Evotec Discovery Library (Evotec SE) and progressing initial hit-through-hit expansion and hit-to-lead optimisation phases. Compound library details are described under https://www.evotec.com/en/execute/drug-discovery-services/hit-identification (accessed on 5 August 2022). We used [14C] citrate uptake assays with HEK293 cells overexpressing recombinant human NaCT (HEK-NaCT). For confirmation, we measured citrate uptake using HepG2 cells which endogenously express NaCT. Furthermore, we measured activity on mouse Nact in a similar assay system using HEK293 cells recombinantly expressing murine Nact (HEK-Nact). We then tested the selectivity of selected compounds with another transporter of the same family—NaDC3. Selectivity was determined by a succinate uptake assay for NaDC3 using HepG2 cells or using HEK293 cells overexpressing recombinant human NaDC3.\nFor radiometric [14C] succinate uptake assays, we applied HEK cells overexpressing human NaDC3 and measured according to the procedure described previously, with a modified incubation buffer of HBSS buffer, supplemented with 20 mM HEPES, pH 7.4 and positive control 2,2-Dimethylsuccinic acid (Sigma-Aldrich, St. Louis, MO, USA)."}, "[1]": {"experiment": "Blood-brain barrier penetration: brain versus liver concentrations", "format": "in vivo", "settings": "brain vs liver"}, "DIO mice": {"tested_on": "DIO mice", "experiment": "7-day treatment of diet-induced obesity (DIO) mice", "format": "in vivo, mouse", "settings": "15 mg/kg twice daily, 7 days", "method": "We performed in vivo testing in DIO mice (for 7- and 28-day treatment), an established model designed to study high-fat-diet-induced hepatic steatosis and associated cardiometabolic traits. We established DIO in four-week-old C57BL/6N male mice that were fed a high-fat diet (HFD, 60 kcal% fat, D12492; Research Diets, Inc.; New Brunswick, NJ, USA) until 11 weeks of age.\nMice were housed at a temperature of 22–24 °C, with a day/night cycle of 12/12 h (07:00-19:00–07:00) and had access to the appropriate diet and tap water ad libitum. Animals allocated to the pair-feeding group were fed the same amount of food as the corresponding treatment group had consumed the day before. Food was only withdrawn for overnight fasting on the penultimate study day before the section on the final day. We randomised groups of n = 12 for treatment and n = 8 for pair-feeding cage-wise according to random fed blood glucose levels and body weight before the study treatment was started. For all animals, the high-fat diet was started at the same age.\nWe treated DIO mice with the inhibitor or corresponding vehicle (5% DMSO/10% Cremophor® EL/85% water) twice a day at the same time by oral gavage according to their grouping (5, 15, and 50 mg/kg dose groups, and vehicle control groups). During the study, we measured body weight and blood glucose. We measured glucose concentrations in tail tip blood samples with the “Accu-Chek® Performa” glucometer (Roche, Basel, Switzerland, range <33.3 mmol/L). We determined random fed blood glucose and fasting blood glucose after overnight fasting.\nWe determined serum beta-hydroxybutyrate with a Beta-Hydroxybutyrate Assay kit, (Sigma-Aldrich, Cat.No. MAK041, St. Louis, MO, USA) following the manufacturer’s instructions. The sample was undiluted, and the volume was 5 µL.\nWe performed Western blots as described previously. Deviating from that protocol samples were heated for 5 min at 95 °C and blotting time was 1 h at 20 volts. For target protein detection, AMPK alpha (D63G4) Rabbit mAb (Cell Signaling Technology, Inc., Danvers, MA, USA; Cat. No. #5832/3; working dilution 1:1000) and Phospho-AMPK alpha (Thr172) (40H9) Rabbit mAb (Cell Signaling Technology, Inc.; Cat. No. #2535/16; working dilution 1:1000) were used; gel loading was controlled by anti-beta-actin (Sigma-Aldrich, Cat. No. A2228). We detected signals with the SuperSignal West Dura Extended Duration Substrate (Thermo Fisher Scientific; Cat. No. 34076, Waltham, MA, USA)."}}, "data": [{"molecule": "O=C(Nc1cc(Cl)cc(C(F)(F)F)c1)OCCC(F)(F)F", "note": "[ETG-5773]", "values": [{"measurement": "IC50", "setting": "human NaDC3 (SLC13A3); HEK293 overexpressing human NaDC3, succinate substrate", "value": "> 20", "unit": "µM"}, {"measurement": "Selectivity for NaCT against NaDC3", "setting": "human NaDC3 (SLC13A3); NaCT citrate uptake vs NaDC3 succinate uptake", "value": "more than 100 fold"}, {"measurement": "Concentration in brain relative to liver (lower)", "setting": "[1]", "value": 30, "unit": "fold"}, {"measurement": "Liver fat after seven-days treatment", "setting": "DIO mice", "value": "not sufficient to significantly reduce liver fat"}, {"measurement": "Ratio of phosphorylated AMPK to total AMPK in liver vs both control groups", "setting": "DIO mice; Western blot, p < 0.01", "value": "AMPK activation"}, {"measurement": "HOMA-IR change vs vehicle", "setting": "DIO mice; numerically reduced, p = 0.24", "value": "−95", "unit": "%"}, {"measurement": "Fasting serum insulin change vs vehicle", "setting": "DIO mice; numerically reduced, p = 0.4", "value": "−91", "unit": "%"}, {"measurement": "Body weight change vs vehicle control", "setting": "DIO mice; p < 0.0001", "value": "−15", "unit": "%"}, {"measurement": "Fasting blood glucose change vs vehicle", "setting": "DIO mice; p < 0.0001", "value": "−45", "unit": "%"}, {"measurement": "Reduction in fasting blood glucose vs pair-fed vehicle control", "setting": "DIO mice; p < 0.0001", "value": 36, "unit": "%"}, {"measurement": "Reduction in HOMA-IR vs pair-fed vehicle control", "setting": "DIO mice; p < 0.05", "value": "> 95", "unit": "%"}, {"measurement": "Reduction in fasting serum insulin vs pair-fed vehicle control", "setting": "DIO mice; p < 0.05", "value": "> 95", "unit": "%"}]}]}
